Several values for one entry are separate records, joined by “and”; a condition that tells them apart may be missing. Identical values can stand only once.
How the values were obtained:
D770A PARP-1 [1] = target: T1, D770A PARP-1 (Homo sapiens, UniProt P09874, D770A); experiment: fluorescence polarization DNA competition and affinity assays, D770A mutant; format: binding
Experimental: FIG. 4B) Helical domain (pink cartoon) movement observed during the simulation, the red arrows indicate length and direction of movement. FIG. 4C) The residue-residue distance observed between the Ca atoms R878-D770 and Y889-V758, the increased distance sampling corresponds to the helical domain movement. FIG. 4D) PARP-1 WT, D770A, or R878A (40 nM) was incubated with a dumbbell DNA probe carrying an internal FAM group and a central nick at 20 nM with or without compound (25 μM) for 30 minutes. An unlabeled competitor was added and the decrease in fluorescence polarization was measured across time. FIG. 4E) The Kd of PARP-1 WT, D770A, or R878A for a DNA dumbbell probe containing a central nick (5 nM) was measured in a fluorescence polarization assay with and without inhibitor (5 μM). Error bars represent Standard Error of the Mean (SEM) (n=3).

HEK 293T cells [2] = experiment: analysis of cell cycle (DAPI, flow cytometry)
Experimental: After the indicated treatments, cells were washed twice with 1× PBS, trypsinized off of the plate, and washed an additional 2 times with 1×PBS. Cells were then permeabilized using 70% cold ethanol while vortexing before incubating for 30 min at 4° C. Cells were then washed three times with 1×PBS and counted using a hemocytometer to create a final pellet of 1×10^6 cells in for each inhibitor condition. 500 μl of DAPI solution (1 μg/ml DAPI, 0.1% Triton X-100 in PBS) was added to each cell pellet and incubated on ice for 30 min before being analyzed by flow cytometry using a BD Canto II. All data was analyzed on FlowJo software, gating for 20,000 singlet events. Manual cell cycle gates were set onto the DMSO control data using Watson modeling as reference. These gates were applied to all treatment conditions to obtain quantitative analysis.
Error bars represent SEM. […] Caspase-Glo 3/7 reagent was added to each well and luminescence was read after 30 minutes. […] Error bars represent SEM. […] Cell cycle was analyzed by flow cytometry (20,000 singlet events) and cell cycle statistics were calculated in FlowJo software against DMSO Watson modeling (n=3). FIG. 3F) DNA synthesis was measured using EdU incorporation. […] EdU incorporation was labelled using TAMRA azide click-chemistry and imaged at 20×. Mean intensity of TAMRA signal within DAPI masks analyzed using Zen software (n>3900 cells over 2 replicates). Values are normalized to the average DMSO control within each replicate. Error bars represent SEM. Statistical significance calculated via one-way ANOVA with Tukey's multiple comparisons test (p<0.05).

D770A PARP-1 [3] = target: T1, D770A PARP-1; experiment: catalytic activity of PARP-1 mutant expressed in HEK 293 cells, D770A; format: biochemical; settings: 3 μM AZ0108
HEK 293T cells [4] = experiment: cell proliferation (MTT) assay; format: cell-based, human
Experimental: HEK 293T or HEK 293 PARP-1 KO cells were seeded in a 96 well plate at 1000-2000 cells per well. Following an overnight incubation, MTT reagent, 3-(4,5-dimethylthiazol-2-yl)-2,5-diphenyltetrazolium bromide, or a dosage curve of indicated inhibitor was added to each well in quadruplicate. Following a 3-hour incubation at 37° C., wells containing MTT reagent, were aspirated and lysed with 100 μl DMSO. These wells acting as a no growth control were collected, saved @ −20° C., and replaced with 100 μl water. The plate was placed back into the incubator for a total of 72 hours of inhibitor treatment prior to MTT reagent being added for a final time. Following a 3 hour incubation with the reagent, wells were aspirated, and 100 μl DMSO were added to each well, while the no growth control sample was added back to the plate. Absorbance was read on a SpectraMaxi3 plate reader (Molecular Devices). Percent growth was calculated for analysis. Statistical significance was assigned using individual t-tests between conditions for each inhibitor dosage.
(§1) Error bars represent SEM. […] Error bars represent SEM. […] Error bars represent SEM.

[5] = tested on: caspase-3/7 activity in HEK 293 cells; experiment: cell apoptosis assay (Caspase-Glo 3/7); format: cell-based, human; settings: 1 μM, 72 hours
Experimental: HEK 293 or HEK 293 PARP-1 KO cells were seeded in a 96 well plate at 1000-2000 cells per well, a media only “blank” was also included. Following an overnight incubation, cells were treated with 1 μM of indicated inhibitors. “Blank” wells were treated with DMSO. Following a 72 hour inhibitor treatment, the Caspase-Glo 3/7 Assay was completed following the manufacturer instructions (Promega, #G8091). Luminescence was read on a SpectraMax i3 plate reader (Molecular Devices).
as §1

HEK 293T cells [6] = experiment: neutral comet assay; format: cell-based, human; settings: 1 μM overnight, compared to bleomycin
Source text: Cells were washed with 1×PBS, trypsinized, resuspended in a 1000,000 cells/ml 1×PBS solution, and mixed with molten agarose 1:2. The agarose mixture was placed onto CometSlides and the comet assay was completed following the manufacturer instructions (Trevigen, 4250-050-K). DNA was stained using SYBR Green and slides were imaged on a Zeiss ApoTome2 on Axiolmager using a 10× objective (>100 cells/condition).

T1 sequence (P09874 whole entry D770A, the tested form may be a part): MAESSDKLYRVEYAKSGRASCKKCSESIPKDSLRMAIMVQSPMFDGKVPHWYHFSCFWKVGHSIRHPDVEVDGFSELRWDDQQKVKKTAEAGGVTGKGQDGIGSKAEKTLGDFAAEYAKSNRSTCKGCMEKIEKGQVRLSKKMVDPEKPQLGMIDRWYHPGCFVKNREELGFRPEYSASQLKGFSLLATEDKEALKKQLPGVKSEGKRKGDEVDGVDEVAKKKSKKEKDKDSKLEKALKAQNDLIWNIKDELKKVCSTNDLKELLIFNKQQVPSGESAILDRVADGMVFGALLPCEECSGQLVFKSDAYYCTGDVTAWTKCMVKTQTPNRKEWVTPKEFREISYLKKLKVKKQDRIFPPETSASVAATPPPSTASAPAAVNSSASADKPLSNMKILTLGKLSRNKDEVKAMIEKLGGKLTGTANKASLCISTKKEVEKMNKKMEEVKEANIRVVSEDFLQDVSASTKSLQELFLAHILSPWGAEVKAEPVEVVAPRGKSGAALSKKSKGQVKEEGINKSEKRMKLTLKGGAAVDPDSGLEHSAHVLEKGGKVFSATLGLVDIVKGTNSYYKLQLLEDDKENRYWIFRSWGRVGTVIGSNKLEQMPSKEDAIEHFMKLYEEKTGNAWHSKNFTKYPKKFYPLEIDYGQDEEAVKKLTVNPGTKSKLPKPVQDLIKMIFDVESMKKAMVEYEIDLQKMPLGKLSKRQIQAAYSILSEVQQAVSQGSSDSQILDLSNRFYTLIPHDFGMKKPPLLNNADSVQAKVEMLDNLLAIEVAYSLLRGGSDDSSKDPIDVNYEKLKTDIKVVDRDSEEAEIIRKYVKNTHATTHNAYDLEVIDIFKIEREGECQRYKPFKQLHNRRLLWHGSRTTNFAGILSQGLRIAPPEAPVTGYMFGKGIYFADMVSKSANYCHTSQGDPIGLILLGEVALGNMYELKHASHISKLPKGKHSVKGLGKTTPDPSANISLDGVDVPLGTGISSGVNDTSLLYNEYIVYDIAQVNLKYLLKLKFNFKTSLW

## (S)-4-(difluoro(3-(6-methyl-3-(trifluoromethyl)-5,6,7,8-tetrahydro-[1,2,4]triazolo[4,3-a]pyrazine-7-carbonyl)phenyl)methyl)phthalazin-1(2H)-one [AZ0108]
D770A PARP-1 [1]; 5 μM inhibitor
  D770A PARP-1's affinity for DNA: nor did it change
D770A PARP-1 [1]; 25 μM compound
  exchange of the D770A PARP-1:labled DNA with unlabeled DNA: did not impact
HEK 293T cells [2]; DAPI intensity, 18 hours
  G1: 9.31%
  G2: 9.65%
  S: 77.4%
HEK 293T cells [2]; FACS, DAPI fluorescence
  effect on cell cycle: arrested HEK 293 cells in S-phase
D770A PARP-1 [3]
  inhibition of D770A PARP-1 activity: inhibited
HEK 293T cells [4]; MTT, 72 h, read-out: EC50 cell growth
  EC50: 30 nM and 29.7 nM
HEK 293T cells [4]; dual-treated with olaparib
  right-shift of the EC50 value for AZ0108 on cell growth: 10 fold
[5]
  reduction of caspase-3/7 activity: 75%
HEK 293T cells [6]
  double-strand breaks (DSBs): only weakly generated DSBs

— US20240317762A1, “PHTHALAZINONE-BASED PARP-1 INHIBITORS” (Oregon Health & Science University, priority 2021, published 2024)
